Experiments:
KDR kinase = target: T1, KDR kinase (Homo sapiens, UniProt P35968); assay: KDR kinase assay (HTRF); format: biochemical; details: KDR kinase-GST, 10 μM ATP
T1 construct: GST; purchased ProQinase GmbH, Freiburg; host or cells: baculovirus-infected insect cells (Sf9)
Protocol: The KDR-inhibitory activity of the substances of this invention was measured in the KDR-HTRF assay (HTRF=Homogeneous Time Resolved Fluorescence) described in the following paragraphs.
Recombinant KDR kinase-GST fusion protein purified from baculovirus-infected insect cells (Sf9) was purchased from ProQinase GmbH, Freiburg. The substrate used for the kinase reaction was the biotinylated peptide biotin-Ahx-DFGLARDMYDKEYYSVG (C terminus in acid form) which can be purchased for example from Biosynthan GmbH (Berlin-Buch, Germany).
KDR kinase was incubated in the presence of various concentrations of test substances in 5 μL of assay buffer [50 mM Hepes/NaOH pH 7.0, 25 mM MgCl2, 5 mM MnCl2, 1.0 mM dithiothreitol, 0.1 mM sodium orthovanadate, 10 μM adenosine triphosphate (ATP), 0.5 μM substrate, 0.001% (v/v) Nonidet-P40 (Sigma), 1% (v/v) dimethyl sulphoxide] at 22° C. for 45 min. The concentration of KDR was adapted to the particular activity of the enzyme and adjusted so that the assay operated in the linear range. The reaction was stopped by adding 5 μl of a solution of HTRF detection reagents (0.1 μM streptavidin-XLent and 2 nM PT66-Eu chelate, a Europium chelate-labelled anti-phospho-tyrosine antibody from Perkin Elmer) in aqueous EDTA solution (125 mM EDTA, 0.2% (w/v) bovine serum albumin (BSA) in 50 mM HEPES/NaOH pH 7.0).
(§1) The resulting mixture was incubated at 22° C. for 1 h in order to allow formation of the biotinylated phosphorylated substrate and the streptavidin-XLent and PT66-Eu chelate. The amount of phosphorylated substrate was then estimated by measuring the resonance energy transfer from the PT66-Eu chelate to the streptavidin-XLent. For this purpose, the fluorescence emissions at 620 nm and 665 nm after excitation at 350 nm were measured in an HTRF measuring instrument, e.g. a Rubystar (BMG Labtechnologies, Offenburg, Germany) or a Viewlux (Perkin-Elmer). The ratio of the emissions at 665 nm and at 622 nm was taken as a measure of the amount of phosphorylated substrate. The data were normalized (enzymic reaction without inhibitor=0% inhibition, all other assay components but no enzyme=100% inhibition) and IC50 values were calculated with a 4-parameter fit using an inhouse software.

CDK1/CycB = target: T2, CDK1/CycB (Homo sapiens, UniProt P06493); assay: CDK1/CycB kinase assay; format: biochemical; details: 0.5 μM ATP, histone IIIS, 33P filter assay
T2 construct: GST; purchased ProQinase GmbH, Freiburg; host or cells: baculovirus-infected insect cells (Sf9)
T2 sequence (P06493 whole entry): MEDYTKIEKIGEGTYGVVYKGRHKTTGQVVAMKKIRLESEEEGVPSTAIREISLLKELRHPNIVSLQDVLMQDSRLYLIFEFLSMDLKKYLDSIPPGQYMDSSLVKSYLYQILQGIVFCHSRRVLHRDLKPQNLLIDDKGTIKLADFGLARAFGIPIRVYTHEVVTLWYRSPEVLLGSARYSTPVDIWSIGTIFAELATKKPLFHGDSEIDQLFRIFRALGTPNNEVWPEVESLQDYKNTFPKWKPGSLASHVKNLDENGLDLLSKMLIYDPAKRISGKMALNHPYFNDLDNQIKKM
T2 sequence (P14635 whole entry partner): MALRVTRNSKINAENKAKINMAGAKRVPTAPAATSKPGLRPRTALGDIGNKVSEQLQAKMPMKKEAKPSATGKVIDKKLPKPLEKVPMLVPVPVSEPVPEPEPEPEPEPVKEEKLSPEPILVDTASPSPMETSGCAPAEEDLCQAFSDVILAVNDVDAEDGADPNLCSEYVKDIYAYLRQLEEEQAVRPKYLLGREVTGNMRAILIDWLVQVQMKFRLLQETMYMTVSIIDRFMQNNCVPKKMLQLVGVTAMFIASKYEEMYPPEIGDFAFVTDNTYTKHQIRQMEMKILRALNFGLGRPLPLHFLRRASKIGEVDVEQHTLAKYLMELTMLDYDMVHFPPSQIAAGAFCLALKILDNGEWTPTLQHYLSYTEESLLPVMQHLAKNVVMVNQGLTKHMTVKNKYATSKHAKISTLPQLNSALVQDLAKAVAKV
Protocol: Recombinant CDK1- and CycB-GST fusion proteins, purified from baculovirus-infected insect cells (Sf9), were purchased from ProQinase GmbH, Freiburg. The histone IIIS used as kinase substrate can be purchased from Sigma.
CDK1/CycB (5 ng/μL) was incubated in the presence of various concentrations of test substances (0 μM, and within the range 0.01-100 μM) in 40 μL of assay buffer [50 mM Tris/HCl pH 8.0, 10 mM MgCl2, 0.1 mM Na ortho-vanadate, 1.0 mM dithiothreitol, 0.025% PEG 20000, 0.5 μM ATP, 10 μM histone IIIIS, 0.2 μCi/measurement point ^33P-gamma ATP, 0.05% NP40, 1.25% dimethyl sulphoxide] at 22° C. for 10 min. The reaction was stopped by adding EDTA solution (250 mM, pH 8.0, 15 μl/measurement point).
15 μl of each reaction mixture were loaded onto P30 filter strips (from Wallac), and non-incorporated ^33P-ATP was removed by washing the filter strips three times in 0.5% strength phosphoric acid for 10 min each time. After the filter strips had been dried at 70° C. for 1 hour, the filter strips were covered with scintillator strips (MeltiLex™ A, from Wallac) and baked at 90° C. for 1 hour. The amount of incorporated ^33P (substrate phosphorylation) was determined by scintillation measurement in a gamma radiation counter (Wallac).
The measured data were normalized to 0% inhibition (enzyme reaction without inhibitor) and 100% inhibition (all assay components except enzyme). The IC50 values were determined by means of a 4-parameter fit using the company's own software.

[1] = tested on: human MCF7 breast tumour cells; assay: MCF7 proliferation assay; format: cell-based; details: 96 h, 4 days incubation, crystal violet staining
Protocol: Cultivated human MCF7 breast tumour cells (ATCC HTB-22) were plated out in a density of 5000 cells/measurement point in 200 μl of growth medium (RPMI1640, 10% foetal calf serum, 2 mU/mL insulin, 0.1 nM oestradiol) in a 96-well multititre plate. After 24 hours, the cells from a plate (zero plate) were stained with crystal violet (see below), while the medium in the other plates was replaced by fresh culture medium (200 μl) to which the test substances had been added in various concentrations (0 μM, and in the range 0.01-30 μM; the final concentration of the solvent dimethyl sulphoxide was 0.5%). The cells were incubated in the presence of the test substances for 4 days. The cell proliferation was determined by staining the cells with crystal violet: the cells were fixed by adding 20 μl/measurement point of an 11% strength glutaraldehyde solution at room temperature for 15 min. After the fixed cells had been washed three times with water, the plates were dried at room temperature. The cells were stained by adding 100 μl/measurement point of a 0.1% strength crystal violet solution (pH adjusted to pH 3 by adding acetic acid). After the stained cells had been washed three times with water, the plates were dried at room temperature. The dye was dissolved by adding 100 μl/measurement point of a 10% strength acetic acid solution, and the extinction was determined by photometry at a wavelength of 595 nm. The percentage change in cell growth was calculated by normalizing the measurements to the extinctions of the zero point plate (=0%) and the extinction of the untreated (0 μM) cells (=100%). The IC50 values were determined by means of a 4-parameter fit using the company's own software.

CDK2/CycE = target: T3, CDK2/CycE (Homo sapiens, UniProt P24941); assay: CDK2/CycE kinase assay (HTRF); format: biochemical; details: 10 μM ATP
T3 construct: GST; purchased ProQinase GmbH, Freiburg; host or cells: baculovirus-infected insect cells (Sf9)
Protocol: The CDK2/CycE inhibitory activity of the substances of this invention was measured in the CDK2/CycE-HTRF assay (HTRF=Homogeneous Time Resolved Fluorescence) described in the following paragraphs.
Recombinant CDK2-GST and CycE-GST fusion proteins purified from baculovirus-infected insect cells (Sf9) were purchased from ProQinase GmbH, Freiburg. The substrate used for the kinase reaction was the biotinylated peptide biotin-Ttds-YISPLKSPYKISEG (C terminus in amide form) which can be purchased for example from JERINI Peptide Technologies (Berlin).
CDK2/CycE was incubated in the presence of various concentrations of test substances in 5 μL of assay buffer [50 mM Tris/HCl pH 8.0, 10 mM MgCl2, 1.0 mM dithiothreitol, 0.1 mM sodium orthovanadate, 10 μM adenosine triphosphate (ATP), 0.75 μM substrate, 0.01% (v/v) Nonidet-P40 (Sigma), 1% (v/v) dimethyl sulphoxide] at 22° C. for 60 min. The concentration of CDK2/CycE was adapted to the particular activity of the enzyme and adjusted so that the assay operated in the linear range. Typical concentrations were in the region of 1 ng/ml. The reaction was stopped by adding 5 μl of a solution of HTRF detection reagents (0.2 μM streptavidin-XLent and 3.4 nM phospho-(Ser) CDKs substrate antibody [product #2324B, Cell Signaling Technology, Danvers, Mass., USA] and 4 nM Prot-A-EuK [protein A labelled with Europium cryptate from C is biointernational, France, product No. 61 PRAKLB]) in aqueous EDTA solution (100 mM EDTA, 800 mM KF, 0.2% (w/v) bovine serum albumin (BSA) in 100 mM HEPES/NaOH pH 7.0).
as §1, with “formation of a complex of the biotinylated” for “formation of the biotinylated”, “and the detection reagents. The amount” for “and the streptavidin-XLent and PT66-Eu chelate. The amount”, “from the Prot-A-EuK to the” for “from the PT66-Eu chelate to the”

human Aurora-C = target: T4, human Aurora-C (Homo sapiens, UniProt Q9UQB9); assay: Aurora-C kinase assay (HTRF); format: biochemical; details: GST-human Aurora-C, 10 μM ATP
T4 construct: GST; made in house; host or cells: transiently transfected HEK293 cells
T4 sequence (Q9UQB9 1-309): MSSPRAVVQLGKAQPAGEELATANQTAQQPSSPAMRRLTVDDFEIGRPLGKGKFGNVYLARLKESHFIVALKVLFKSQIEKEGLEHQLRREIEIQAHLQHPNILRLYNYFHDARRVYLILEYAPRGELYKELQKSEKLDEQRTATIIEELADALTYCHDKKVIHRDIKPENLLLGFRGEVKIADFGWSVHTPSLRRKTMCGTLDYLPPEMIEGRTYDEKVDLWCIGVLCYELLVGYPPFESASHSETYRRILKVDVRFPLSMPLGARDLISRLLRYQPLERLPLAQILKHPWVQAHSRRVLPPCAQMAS
Protocol: The Aurora-C inhibitory activity of the substances of this invention was measured in the Aurora-C-HTRF assay (HTRF=Homogeneous Time Resolved Fluorescence) described in the following paragraphs.
Recombinant fusion protein of GST and human Aurora-C was expressed in transiently transfected HEK293 cells and purified by affinity chromatography on glutathione-Sepharose. The substrate used for the kinase reaction was the biotinylated peptide biotin-Ttds-FMRLRRLSTKYRT (C terminus in amide form) which can be purchased for example from JERINI Peptide Technologies (Berlin). Aurora-C was incubated in the presence of various concentrations of test substances in 5 μL of assay buffer [25 mM Hepes/NaOH pH 7.4, 0.5 mM MnCl2, 2.0 mM dithiothreitol, 0.1 mM sodium orthovanadate, 10 μM adenosine triphosphate (ATP), […] substrate, 0.01% (v/v) TritonX-100 (Sigma), 0.05% (w/v) bovine serum albumin (BSA), 1% (v/v) dimethyl sulphoxide] at 22° C. for 60 min. The concentration of Aurora-C was adapted to the particular activity of the enzyme and adjusted so that the assay operated in the linear range. Typical concentrations were in the region of 0.3 nM. The reaction was stopped by adding 5 μl of a solution of HTRF detection reagents (0.2 μM streptavidin-XLent and 1.4 nM anti-phospho-(Ser/Thr)-Akt substrate-Eu-cryptate (C is biointernational, France, product No. 61P02KAE), a Europium-cryptate-labelled phospho-(Ser/Thr)-Akt substrate antibody [product #9611B, Cell Signaling Technology, Danvers, Mass., USA]) in aqueous EDTA solution (40 mM EDTA, 400 mM KF, 0.05% (w/v) bovine serum albumin (BSA) in 25 mM HEPES/NaOH pH 7.0).
as §1, with “formation of a complex of the biotinylated” for “formation of the biotinylated”, “and the detection reagents. The amount” for “and the streptavidin-XLent and PT66-Eu chelate. The amount”, “from the anti-phospho-(Ser/Thr)-Akt substrate-Eu cryptate to the” for “from the PT66-Eu chelate to the”

T1 sequence (P35968 807-1356 limits assumed): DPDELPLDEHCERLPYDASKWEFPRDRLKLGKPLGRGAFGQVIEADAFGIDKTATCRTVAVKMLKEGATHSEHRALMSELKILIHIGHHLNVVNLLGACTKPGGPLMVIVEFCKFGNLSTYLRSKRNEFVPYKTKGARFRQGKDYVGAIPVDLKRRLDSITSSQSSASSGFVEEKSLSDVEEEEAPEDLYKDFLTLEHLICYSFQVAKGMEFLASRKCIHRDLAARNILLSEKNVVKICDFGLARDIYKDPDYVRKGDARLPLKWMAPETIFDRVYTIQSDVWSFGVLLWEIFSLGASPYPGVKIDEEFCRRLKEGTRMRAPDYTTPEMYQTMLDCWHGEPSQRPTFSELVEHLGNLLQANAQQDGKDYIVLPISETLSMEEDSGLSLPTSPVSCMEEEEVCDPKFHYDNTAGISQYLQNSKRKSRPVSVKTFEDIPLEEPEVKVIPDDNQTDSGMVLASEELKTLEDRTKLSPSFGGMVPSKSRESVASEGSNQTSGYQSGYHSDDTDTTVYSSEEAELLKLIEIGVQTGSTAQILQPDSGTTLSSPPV

Row | IC50 (KDR kinase) [nM] | IC50 (CDK1/CycB) [nM] | IC50 [1] [nM] | IC50 (CDK2/CycE) [nM] | IC50 (human Aurora-C) [nM] | SMILES
1 | 1400 | 98 | 800 | 60 | – | Cc1cc(C)nc(Sc2ccc(Nc3ncc(Br)c(O[C@H](C)[C@@H](C)O)n3)cc2)n1 [Example 41]
2 | 23 | – | – | 670 | 120 | Brc1cnc(Nc2cccc(Nc3ncc(Br)c(NCCc4c[nH]cn4)n3)c2)nc1NCCc1c[nH]cn1 [Example 28]

— patent publication US20080176866A1, “NOVEL HETARYL-PHENYLENEDIAMINE-PYRIMIDINES AS PROTEIN KINASE INHIBITORS” (priority 2006, published 2008)
